The numbers were not newly measured in patent publication US5583127A, “17-iminomethylalkenyl-5 β, 14 β-androstane and 17-iminoalkyl-5 β, 14 β-androstane derivatives active on the cardiovascular system, and pharmaceutical compositions containing same” (Sigma-Tau Industrie Farmaceutiche Riunite S.p.A., priority 1993, dated 1996), which cites them from elsewhere.

For data set [1] the following is noted: reported in literature; cited from earlier work.
Data set [2] deals with Na^+,K^+ -ATPase. Particulars: reported in literature; cited from earlier work.

Take `C[C@]12CC[C@H](O)C[C@H]1CC[C@@H]1[C@@H]2CC[C@]2(C)[C@@H](C=NNC(=N)N)CC[C@]12O` [17β-guanidinoiminomethyl-5β-androstane-3β,14β-diol]: the positive inotropic activity result in data set [1] is listed as “weak positive inotropic agents”. Moreover, the “inhibition of Na+,K+-ATPase” value in data set [2] is “weak inhibitors of Na^+,K^+ -ATPase”.

In the case of `C[C@]12CC[C@H](O)C[C@H]1CC[C@@H]1[C@@H]2CC[C@]2(C)C(=NNC(=N)N)CC[C@]12O` [17-guanidinoimino-5β-androstane-3β,14β-diol], the positive inotropic activity result in data set [1] was “weak positive inotropic agents”. The “inhibition of Na+,K+-ATPase” value in data set [2] is listed as “weak inhibitors of Na^+,K^+ -ATPase”.
